# Data reported in ChEMBL document CHEMBL1141332, “Cytotoxic metabolites from an Indonesian sponge Lendenfeldia sp” (J Nat Prod, 2007).
# Key:
# Type in all cases: functional
# RPMI-8226 = assay: Cytotoxicity against human RPMI8226 cells
# HT-29 = assay: Cytotoxicity against human HT29 cells
# ACHN = assay: Cytotoxicity against human ACHN cells
# DU-145 = assay: Cytotoxicity against human DU145 cells
# MCF7 = assay: Cytotoxicity against human MCF7 cells
# UO-31 = assay: Cytotoxicity against human UO31 cells
# SNB-19 = assay: Cytotoxicity against human SNB19 cells; conditions: read-out: Log LC50 (the source's name) (converted)
# U-251 = assay: Cytotoxicity against human U251cells
# COLO 205 = assay: Cytotoxicity against human COLO205 cells
# NCI-H23 = assay: Cytotoxicity against human NCI-H23 cells
# NCI-H226 = assay: Cytotoxicity against human NCI-H226 cells
# SNB-75 = assay: Cytotoxicity against human SNB75 cells
# KM12 = assay: Cytotoxicity against human KM12 cells
# HCC 2998 = assay: Cytotoxicity against human HCC2998 cells
# BT-549 = assay: Cytotoxicity against human BT549 cells
# NCI-H460 = assay: Cytotoxicity against human NCI-H460 cells
# LOX IMVI = assay: Cytotoxicity against human LOX IMVI cells
# SK-MEL-5 = assay: Cytotoxicity against human SK-MEL-5 cells
# EKVX = assay: Cytotoxicity against human EKVX cells
# [1] = Cytotoxicity against human HS578T cells; conditions: Hs-578T
# NCI-H322M = assay: Cytotoxicity against human NCI-H322M cells
# OVCAR-5 = assay: Cytotoxicity against human OVCAR5 cells
# HCT-15 = assay: Cytotoxicity against human HCT15 cells
# SF-539 = assay: Cytotoxicity against human SF539 cells
# NCI-H522 = assay: Cytotoxicity against human NCI-H522 cells
# SK-MEL-28 = assay: Cytotoxicity against human SK-MEL-28 cells
# PC-3 = assay: Cytotoxicity against human PC3 cells
# UACC-257 = assay: Cytotoxicity against human UACC257 cells
# SK-MEL-2 = assay: Cytotoxicity against human SK-MEL-2 cells
# Malme-3M = assay: Cytotoxicity against human MALME-3M cells
# SF-295 = assay: Cytotoxicity against human SF295 cells
# SN12C = assay: Cytotoxicity against human SN12C cells
# T47D = assay: Cytotoxicity against human T47D cells
# M14 = assay: Cytotoxicity against human M14 cells
# SF-268 = assay: Cytotoxicity against human SF268 cells
# HCT-116 = assay: Cytotoxicity against human HCT116 cells
# 786-0 = assay: Cytotoxicity against human 786-0 cells
# SK-OV-3 = assay: Cytotoxicity against human SK-OV-3 cells
# A498 = assay: Cytotoxicity against human A498 cells
# MOLT-4 = assay: Cytotoxicity against human MOLT4 cells
# OVCAR-8 = assay: Cytotoxicity against human OVCAR8 cells
# HL-60 = assay: Cytotoxicity against human HL60 cells; conditions: Homo sapiens, HL-60
# HOP-62 = assay: Cytotoxicity against human HOP62 cells
# MDA-MB-435 = assay: Cytotoxicity against human MDA-MB-435 cells
# UACC-62 = assay: Cytotoxicity against human UACC62 cells
# [2] = read-out: Log LC50 (the source's name) (converted)
smiles,measurement,setting,value
CC(=O)C1=CC[C@H]2[C@]3(C)CC[C@H]4C(C)(C)CCC[C@]4(C(=O)O)[C@H]3CC(=O)[C@]2(C)[C@H]1C=O,GI50,RPMI-8226,0.603 µM
same,CC50,RPMI-8226; [2],12.9 µM
same,TGI,RPMI-8226; read-out: Log TGI (converted),2.34 µM
same,GI50,HT-29,0.257 µM
same,CC50,HT-29; [2],> 100 µM
same,TGI,HT-29; read-out: Log TGI (converted),1.62 µM
same,GI50,ACHN,0.479 µM
same,LC50,ACHN,4.17 µM
same,TGI,ACHN; read-out: Log TGI (converted),1.7 µM
same,GI50,DU-145,1.32 µM
same,LC50,DU-145,5.5 µM
same,TGI,DU-145; read-out: Log TGI (converted),2.69 µM
same,GI50,MCF7,0.813 µM
same,LC50,MCF7,51.3 µM
same,TGI,MCF7; read-out: Log TGI (converted),9.33 µM
same,GI50,UO-31,1.2 µM
same,LC50,UO-31,5.62 µM
same,TGI,UO-31; read-out: Log TGI (converted),2.57 µM
same,CC50,SNB-19,3.02 µM
same,GI50,U-251,1.23 µM
same,CC50,U-251; [2],5.01 µM
same,TGI,U-251; read-out: Log TGI (converted),2.45 µM
same,GI50,COLO 205,0.794 µM
same,CC50,COLO 205; [2],7.41 µM
same,TGI,COLO 205; read-out: Log TGI (converted),2.57 µM
same,GI50,NCI-H23,2 µM
same,CC50,NCI-H23; [2],9.12 µM
same,TGI,NCI-H23; read-out: Log TGI (converted),4.27 µM
same,GI50,NCI-H226,1.82 µM
same,TGI,NCI-H226; read-out: Log TGI (converted),3.8 µM
same,GI50,SNB-75,1.82 µM
same,CC50,SNB-75; [2],5.89 µM
same,TGI,SNB-75; read-out: Log TGI (converted),3.31 µM
same,GI50,KM12,1.41 µM
same,CC50,KM12; [2],21.4 µM
same,TGI,KM12; read-out: Log TGI (converted),3.89 µM
same,GI50,HCC 2998,1.62 µM
same,CC50,HCC 2998; [2],5.62 µM
same,TGI,HCC 2998; read-out: Log TGI (converted),3.02 µM
same,GI50,BT-549,1.26 µM
same,LC50,BT-549,6.17 µM
same,TGI,BT-549; read-out: Log TGI (converted),2.75 µM
same,GI50,NCI-H460,1.66 µM
same,CC50,NCI-H460; [2],8.71 µM
same,TGI,NCI-H460; read-out: Log TGI (converted),3.8 µM
same,GI50,LOX IMVI,1.45 µM
same,CC50,LOX IMVI; [2],5.62 µM
same,TGI,LOX IMVI; read-out: Log TGI (converted),2.82 µM
same,GI50,SK-MEL-5,1.45 µM
same,CC50,SK-MEL-5; [2],5.25 µM
same,TGI,SK-MEL-5; read-out: Log TGI (converted),2.75 µM
same,GI50,EKVX,2.14 µM
same,CC50,EKVX; [2],25.1 µM
same,TGI,EKVX; read-out: Log TGI (converted),5.62 µM
same,GI50,[1],1.74 µM
same,LC50,[1],19.1 µM
same,TGI,[1]; read-out: Log TGI (converted),4.37 µM
same,GI50,NCI-H322M,3.55 µM
same,CC50,NCI-H322M; [2],42.7 µM
same,TGI,NCI-H322M; read-out: Log TGI (converted),10.5 µM
same,GI50,OVCAR-5,1.86 µM
same,CC50,OVCAR-5; [2],8.91 µM
same,TGI,OVCAR-5; read-out: Log TGI (converted),4.07 µM
same,GI50,HCT-15,0.759 µM
same,CC50,HCT-15; [2],5.25 µM
same,TGI,HCT-15; read-out: Log TGI (converted),2.14 µM
same,GI50,SF-539,0.741 µM
same,CC50,SF-539; [2],4.57 µM
same,TGI,SF-539; read-out: Log TGI (converted),2.04 µM
same,GI50,NCI-H522,1.74 µM
same,CC50,NCI-H522; [2],11.2 µM
same,TGI,NCI-H522; read-out: Log TGI (converted),4.17 µM
same,GI50,SK-MEL-28,0.355 µM
same,CC50,SK-MEL-28; [2],4.47 µM
same,TGI,SK-MEL-28; read-out: Log TGI (converted),1.35 µM
same,GI50,PC-3,0.977 µM
same,LC50,PC-3,18.2 µM
same,TGI,PC-3; read-out: Log TGI (converted),3.63 µM
same,GI50,UACC-257,2.4 µM
same,CC50,UACC-257; [2],42.7 µM
same,TGI,UACC-257; read-out: Log TGI (converted),6.46 µM
same,GI50,SK-MEL-2,2.4 µM
same,CC50,SK-MEL-2; [2],37.2 µM
same,TGI,SK-MEL-2; read-out: Log TGI (converted),5.25 µM
same,GI50,Malme-3M,1.62 µM
same,CC50,Malme-3M; [2],6.76 µM
same,TGI,Malme-3M; read-out: Log TGI (converted),3.31 µM
same,GI50,SF-295,1.45 µM
same,CC50,SF-295; [2],6.92 µM
same,TGI,SF-295; read-out: Log TGI (converted),3.16 µM
same,GI50,SN12C,1.55 µM
same,LC50,SN12C,6.46 µM
same,TGI,SN12C; read-out: Log TGI (converted),3.16 µM
same,GI50,T47D,1.17 µM
same,LC50,T47D,85.1 µM
same,TGI,T47D; read-out: Log TGI (converted),6.61 µM
same,GI50,M14,1.82 µM
same,CC50,M14; [2],6.92 µM
same,TGI,M14; read-out: Log TGI (converted),3.55 µM
same,GI50,SF-268,1.2 µM
same,CC50,SF-268; [2],7.24 µM
same,TGI,SF-268; read-out: Log TGI (converted),2.95 µM
same,GI50,HCT-116,0.468 µM
same,CC50,HCT-116; [2],4.07 µM
same,TGI,HCT-116; read-out: Log TGI (converted),1.62 µM
same,GI50,786-0,0.603 µM
same,CC50,786-0; [2],4.37 µM
same,TGI,786-0; read-out: Log TGI (converted),1.91 µM
same,GI50,SK-OV-3,3.02 µM
same,CC50,SK-OV-3; [2],37.2 µM
same,TGI,SK-OV-3; read-out: Log TGI (converted),10.2 µM
same,GI50,A498,1.12 µM
same,LC50,A498,15.8 µM
same,TGI,A498; read-out: Log TGI (converted),3.63 µM
same,GI50,MOLT-4,0.257 µM
same,CC50,MOLT-4; [2],4.47 µM
same,TGI,MOLT-4; read-out: Log TGI (converted),0.912 µM
same,GI50,OVCAR-8,1.32 µM
same,CC50,OVCAR-8; [2],> 100 µM
same,TGI,OVCAR-8; read-out: Log TGI (converted),3.63 µM
same,GI50,HL-60,0.282 µM
same,CC50,HL-60; [2],6.31 µM
same,TGI,HL-60; read-out: Log TGI (converted),1.38 µM
same,GI50,HOP-62,1.35 µM
same,CC50,HOP-62; [2],5.75 µM
same,TGI,HOP-62; read-out: Log TGI (converted),2.75 µM
same,GI50,MDA-MB-435,1.55 µM
same,LC50,MDA-MB-435,6.17 µM
same,TGI,MDA-MB-435; read-out: Log TGI (converted),3.09 µM
same,GI50,UACC-62,1.74 µM
same,CC50,UACC-62; [2],5.89 µM
same,TGI,UACC-62; read-out: Log TGI (converted),3.24 µM
